Reference: patent US7981861B2, “Method of performing angioplasty with a GLP-1 molecule” (Amylin Pharmaceuticals, Inc., priority 2000, dated 2011)
“Also recorded” adds a separate entry of the source.

Legend:
Wistar rats = test: LAD coronary artery occlusion (25 min) and 2-hour reperfusion, infarct size in anesthetized rats; format: in vivo, rat
Procedure: Wistar rats were anesthetized with thiopentone sodium. The left anterior descending (LAD) coronary artery was occluded. After 25 minutes of occlusion, reperfusion was allowed for 2 hours. This animal model has been described previously. Zacharowski, et al., Br. J. Pharmacol. 128; 945-952 (1999).
GLP-1 (1.5 μg/kg/min) was infused into anesthetized rats (n=10), commencing 10 minutes prior to reperfusion and continuing throughout the 2-hour reperfusion. Controls were sham operated with no occlusion (n=7), LAD occlusion+reperfusion+administration of saline (n=12), and LAD occlusion and reperfusion with a buffer of 10 mM sodium acetate, 5.05% D-mannitol, pH 4.5, (“vehicle”) at 1.5 mL/kg/hour (n=10).
Following reperfusion, the coronary artery was reoccluded, and Evans Blue dye (4 ml, 2% w/v) was injected into the left ventricle of the heart via a right carotid artery cannula. Evans Blue stains perfused myocardium, while occluded vascular bed remains uncolored. Animals were then killed by anesthetic overdose and the hearts were removed for examination. Hearts were sectioned and the right ventricular wall was removed. The area at risk (pink) was separated from the non-ischemic tissue (blue). The area at risk (pink) was then cut into smaller pieces and stained with p-nitroblue tetrazolium (NBT; 0.5 mg/ml) for 20 min. at 37° C. In the presence of intact dehydrogenase enzyme systems (viable myocardium), NBT forms a dark blue compound. Areas of necrosis lack the enzyme and remain unstained. Tissue was separated according to staining and weighed to determine infarct size as a percentage of the area at risk.

dogs = test: 10-minute left circumflex coronary (LCx) occlusion/reperfusion, myocardial stunning in dogs; format: in vivo, dog; details: GLP-1 infusion for 24 hours beginning 1 minute prior to reperfusion
Procedure: Two dogs were studied at baseline before, during, and for 6 hours after a 10-minute complete left circumflex coronary (LCx) occlusion. Each dog underwent occlusion/reperfusion in the presence and absence of GLP-1 infusion for 24 hours, beginning 1 minute prior to reperfusion. GLP-1 infusion enhanced the recovery of ventricular wall regional dysfunction following 10 minutes of coronary artery occlusion.

GLP-1
infarct size as a percentage of the area at risk (Wistar rats; GLP-1 1.5 μg/kg/min infusion from 10 minutes prior to reperfusion and throughout 2-hour reperfusion, n=10, vehicle 46±4%, saline 50±3%): 31±4%
reduction in infarct size compared with the vehicle group (Wistar rats; GLP-1 1.5 μg/kg/min infusion, statistically significant (p<0.05)): approximately 33%
reduction of infarct size (summary statement) (Wistar rats; GLP-1 during last 10 min. of 25 min. ischemia and throughout 2-hour reperfusion, rats): 30%
hemodynamics (Wistar rats; rats, GLP-1 during last 10 min. of ischemia and throughout 2-hour reperfusion): significantly improved
stunning period during reperfusion after subcritical ischemia (dogs; dogs): significantly reduced; also recorded: reduced stunning
recovery of ventricular wall regional dysfunction following 10 minutes of coronary artery occlusion (dogs; two dogs): enhanced
